Source: patent US20250214991A1 (Oncopia Therapeutics, Inc. d/b/a/ SK Life Science Labs, priority 2022, published 2025)

What was measured:
[1] = biological target: IKZF1 (Homo sapiens (Human), UniProt Q13422+Q96SW2); assay: In vitro IKZF1 HiBit Assay (HEK293T Flp-in-HiBiT-IKZF1 stable cell line); assay type: cell-based; details: HEK293T Flp-in-HiBiT-IKZF1 stable cell line, 6 hrs incubation; for DC50: read-out: IKZF1 HiBit DC50; for Dmax: HEK-293T, read-out: IKZF1 HiBit Dmax (%)
In short: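 Degradation was measured as loss of luminescence from the HiBiT-IKZF1 tag after 6 h compound treatment, with 0.1% final DMSO, in stable HEK293T Flp-in cells. Values were normalized to DMSO, giving the 50% degradation concentration and the maximal degradation range.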

[2] = biological target: CRBN/DDB1 (Homo sapiens (Human), UniProt Q96SW2); assay: IC50 measurements for binding to CRBN/DDB1 (HTRF); details: His tagged CRBN+DDB, Cy5-labeled Thalidomide probe, one hour
In short: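 Serially diluted compounds compete with a Cy5-labeled thalidomide tracer (60 nM) for His-tagged CRBN-DDB1 (2 nM), detected via anti-6His Tb cryptate (0.4 nM); buffer HEPES pH 7.5 with TCEP, Brij-35, NaCl, BSA. One-hour room-temperature incubation, HTRF signal read, IC50 by four-parameter curve.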

[3] = biological target: IKZF2 (Homo sapiens (Human), UniProt Q96SW2+Q9UKS7); assay: In vitro IKZF2 HiBit Assay (HEK293T Flp-in-HiBiT cells); assay type: cell-based; details: HEK293T Flp-in-HiBiT cells, 6 hrs incubation; for DC50: read-out: IKZF2 HiBit DC50; for Dmax: HEK-293T, read-out: IKZF2 HiBit Dmax (%)
In short: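 Remaining tagged Helios was read as lytic HiBiT/LgBiT luminescence normalized to DMSO, yielding binned DC50 and Dmax values. Treatment ran 6 h, with compounds at 11 three-fold doses diluted from 1 mM and 0.1% final DMSO. The cells were HEK293T Flp-in with CRISPR knock-in of HiBiT at the IKZF2 N-terminus.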

Chain of CRBN/DDB1 (Q96SW2 whole entry, species assumed): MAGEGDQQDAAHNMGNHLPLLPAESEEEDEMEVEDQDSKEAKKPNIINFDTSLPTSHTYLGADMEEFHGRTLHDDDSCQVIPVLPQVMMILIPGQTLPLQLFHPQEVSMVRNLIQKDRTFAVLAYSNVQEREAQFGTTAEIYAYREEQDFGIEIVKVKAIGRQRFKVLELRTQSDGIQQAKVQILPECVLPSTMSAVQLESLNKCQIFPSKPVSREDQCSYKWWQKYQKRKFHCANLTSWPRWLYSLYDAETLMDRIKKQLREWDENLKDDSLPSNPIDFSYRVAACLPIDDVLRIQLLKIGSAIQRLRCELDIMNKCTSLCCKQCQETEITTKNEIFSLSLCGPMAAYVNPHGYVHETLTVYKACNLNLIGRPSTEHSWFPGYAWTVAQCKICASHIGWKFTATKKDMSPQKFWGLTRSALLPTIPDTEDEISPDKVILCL
Chain of CRBN/DDB1 (Q16531 whole entry partner, species assumed): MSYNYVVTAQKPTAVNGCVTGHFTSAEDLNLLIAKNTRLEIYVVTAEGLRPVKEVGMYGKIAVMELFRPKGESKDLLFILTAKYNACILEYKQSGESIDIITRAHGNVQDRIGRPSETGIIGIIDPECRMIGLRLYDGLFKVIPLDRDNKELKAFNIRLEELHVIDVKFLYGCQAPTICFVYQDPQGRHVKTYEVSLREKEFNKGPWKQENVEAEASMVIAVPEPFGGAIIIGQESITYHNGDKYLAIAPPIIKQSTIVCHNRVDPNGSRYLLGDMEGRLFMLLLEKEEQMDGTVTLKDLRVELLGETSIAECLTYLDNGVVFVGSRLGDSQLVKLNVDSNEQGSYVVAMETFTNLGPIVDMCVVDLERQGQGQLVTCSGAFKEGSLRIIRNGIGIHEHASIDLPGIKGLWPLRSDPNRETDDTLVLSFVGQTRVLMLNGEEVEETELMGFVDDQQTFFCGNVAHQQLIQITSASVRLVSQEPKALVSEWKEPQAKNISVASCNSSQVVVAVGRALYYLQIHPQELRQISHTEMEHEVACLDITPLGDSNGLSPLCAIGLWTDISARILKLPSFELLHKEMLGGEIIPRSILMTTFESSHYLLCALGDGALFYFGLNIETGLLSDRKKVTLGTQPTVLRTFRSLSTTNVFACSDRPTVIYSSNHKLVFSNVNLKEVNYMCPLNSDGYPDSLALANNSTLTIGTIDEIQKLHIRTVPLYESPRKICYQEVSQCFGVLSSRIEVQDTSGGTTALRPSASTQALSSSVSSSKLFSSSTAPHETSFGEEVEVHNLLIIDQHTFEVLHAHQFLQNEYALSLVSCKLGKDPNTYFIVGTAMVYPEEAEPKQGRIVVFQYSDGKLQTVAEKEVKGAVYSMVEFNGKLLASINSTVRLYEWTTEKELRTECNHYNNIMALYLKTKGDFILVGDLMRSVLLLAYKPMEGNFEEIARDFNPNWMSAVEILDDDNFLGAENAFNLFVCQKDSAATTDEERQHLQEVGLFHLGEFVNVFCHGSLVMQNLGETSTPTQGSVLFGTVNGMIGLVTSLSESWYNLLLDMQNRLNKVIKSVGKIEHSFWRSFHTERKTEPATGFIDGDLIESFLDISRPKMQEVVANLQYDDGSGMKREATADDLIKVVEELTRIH
Chain of IKZF1 (Q13422 whole entry): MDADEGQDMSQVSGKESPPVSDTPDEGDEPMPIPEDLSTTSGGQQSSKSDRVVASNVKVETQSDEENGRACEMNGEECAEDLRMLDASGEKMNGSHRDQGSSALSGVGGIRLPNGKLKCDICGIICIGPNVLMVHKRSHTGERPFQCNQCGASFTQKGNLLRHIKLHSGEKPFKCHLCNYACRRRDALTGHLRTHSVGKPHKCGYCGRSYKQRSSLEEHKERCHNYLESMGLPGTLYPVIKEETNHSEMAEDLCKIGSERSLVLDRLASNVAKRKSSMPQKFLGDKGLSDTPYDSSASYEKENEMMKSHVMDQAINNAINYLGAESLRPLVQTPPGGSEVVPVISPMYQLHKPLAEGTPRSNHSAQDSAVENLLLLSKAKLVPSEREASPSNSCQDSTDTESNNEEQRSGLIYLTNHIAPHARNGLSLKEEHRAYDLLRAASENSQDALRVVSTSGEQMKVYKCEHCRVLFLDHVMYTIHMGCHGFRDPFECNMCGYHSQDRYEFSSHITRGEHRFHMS
Chain of IKZF1 (Q96SW2 whole entry): as the sequence (Q96SW2 whole entry, species assumed) above
Chain of IKZF1 (Q16531 2-1140 partner): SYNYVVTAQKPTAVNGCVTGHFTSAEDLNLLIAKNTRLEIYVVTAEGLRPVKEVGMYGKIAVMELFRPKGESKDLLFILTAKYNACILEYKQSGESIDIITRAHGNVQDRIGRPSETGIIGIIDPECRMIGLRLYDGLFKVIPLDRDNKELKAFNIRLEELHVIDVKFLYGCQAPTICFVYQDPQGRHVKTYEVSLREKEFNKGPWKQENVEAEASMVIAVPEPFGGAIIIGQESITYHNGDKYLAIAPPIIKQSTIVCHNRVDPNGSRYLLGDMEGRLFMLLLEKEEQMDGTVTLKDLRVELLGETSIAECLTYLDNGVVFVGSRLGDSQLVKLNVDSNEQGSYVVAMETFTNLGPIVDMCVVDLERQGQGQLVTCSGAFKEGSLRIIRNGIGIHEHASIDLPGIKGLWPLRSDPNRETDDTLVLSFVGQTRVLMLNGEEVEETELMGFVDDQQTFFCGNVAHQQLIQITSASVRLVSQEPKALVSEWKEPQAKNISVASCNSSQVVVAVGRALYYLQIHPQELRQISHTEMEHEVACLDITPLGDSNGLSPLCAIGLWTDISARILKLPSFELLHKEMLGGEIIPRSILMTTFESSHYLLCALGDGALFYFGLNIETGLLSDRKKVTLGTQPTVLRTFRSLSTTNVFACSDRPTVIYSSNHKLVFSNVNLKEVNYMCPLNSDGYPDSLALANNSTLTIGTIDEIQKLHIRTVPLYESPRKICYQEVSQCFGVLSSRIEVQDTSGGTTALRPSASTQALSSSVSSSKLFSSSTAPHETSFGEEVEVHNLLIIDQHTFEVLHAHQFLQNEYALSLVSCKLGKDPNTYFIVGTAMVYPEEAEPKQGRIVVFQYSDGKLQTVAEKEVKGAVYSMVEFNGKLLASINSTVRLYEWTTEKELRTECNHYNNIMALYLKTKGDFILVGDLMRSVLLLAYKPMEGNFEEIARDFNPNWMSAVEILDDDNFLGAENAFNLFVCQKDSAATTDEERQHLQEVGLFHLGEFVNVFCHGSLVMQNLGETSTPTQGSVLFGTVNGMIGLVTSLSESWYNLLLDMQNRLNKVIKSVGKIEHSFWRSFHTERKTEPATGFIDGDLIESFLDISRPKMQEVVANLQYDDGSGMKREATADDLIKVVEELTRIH
Chain of IKZF2 (Q9UKS7 whole entry): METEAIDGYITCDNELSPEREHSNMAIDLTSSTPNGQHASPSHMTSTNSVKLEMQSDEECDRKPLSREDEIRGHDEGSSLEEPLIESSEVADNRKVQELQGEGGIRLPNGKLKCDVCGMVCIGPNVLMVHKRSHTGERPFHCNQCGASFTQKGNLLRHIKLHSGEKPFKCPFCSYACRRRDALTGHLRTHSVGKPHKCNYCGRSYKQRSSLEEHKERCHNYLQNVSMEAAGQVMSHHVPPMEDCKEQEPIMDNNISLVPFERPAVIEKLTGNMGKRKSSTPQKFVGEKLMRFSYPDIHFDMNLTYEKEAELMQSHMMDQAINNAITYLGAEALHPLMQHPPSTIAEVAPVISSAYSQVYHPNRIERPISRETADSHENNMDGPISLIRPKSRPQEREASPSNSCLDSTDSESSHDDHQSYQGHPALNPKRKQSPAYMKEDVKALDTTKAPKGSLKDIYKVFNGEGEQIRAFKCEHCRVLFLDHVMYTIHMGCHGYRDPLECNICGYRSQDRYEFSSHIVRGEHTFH
Chain of IKZF2 (Q96SW2 whole entry): as the sequence (Q96SW2 whole entry, species assumed) above
Chain of IKZF2 (Q16531 2-1140 partner): as the sequence (Q16531 2-1140 partner) above

SMILES | DC50 [1] [µM] | Dmax [1] [%] | IC50 [2] [nM] | DC50 [3] [nM] | Dmax [3] [%]
O=C1CCC(N2Cc3cc(-c4cc(CN5CCCC5)c5ccn(-c6ccccc6)c5n4)ccc3C2=O)C(=O)N1 (stereo not drawn) [Example 139, 3-(1-oxo-5-(1-phenyl-4-(pyrrolidin-1-ylmethyl)-1H-pyrrolo[2,3-b]pyridin-6-yl)isoindolin-2-yl) piperidine-2,6-dione] | 0.01 to 0.1 | 20 to 40 | 500 to 1000 | 1 to 10 | 60 to 80
CC#CCn1ccc2c(CN3CCCC3)cc(-c3ccc4c(c3)CN(C3CCC(=O)NC3=O)C4=O)nc21 (stereo not drawn) [Example 148, 3-(5-(1-(but-2-yn-1-yl)-4-(pyrrolidin-1-ylmethyl)-1H-pyrrolo[2,3-b]pyridin-6-yl)-1-oxoisoindolin-2-yl) piperidine-2,6-dione] | > 10 | < 20 | 100 to 500 | 1 to 10 | 60 to 80
Cn1ccc2c(CN3CCn4nccc4C3)cc(-c3ccc4c(c3)CN(C3CCC(=O)NC3=O)C4=O)nc21 (stereo not drawn) [Example 107, 3-(5-(4-((6,7-dihydropyrazolo[1,5-a]pyrazin-5 (4H)-yl)methyl)-1-methyl-1H-pyrrolo[2,3-b]pyridin-6-yl)-1-oxoisoindolin-2-yl) piperidine-2,6-dione] | > 10 | < 20 | 100 to 500 | 10 to 100 | 40 to 60
O=C1CCC(N2Cc3cc(-c4cc(CN5CC(O)C5)c5ccn(C6COC6)c5n4)ccc3C2=O)C(=O)N1 (stereo not drawn) [Example 160, 3-(5-(4-((3-hydroxyazetidin-1-yl)methyl)-1-(oxetan-3-yl)-1H-pyrrolo[2,3-b]pyridin-6-yl)-1-oxoisoindolin-2-yl) piperidine-2,6-dione] | > 10 | < 20 | < 100 | 10 to 100 | 40 to 60
Cn1ccnc1N1CCN(Cc2cc(-c3ccc4c(c3)CN(C3CCC(=O)NC3=O)C4=O)nc3c2ccn3C)CC1 (stereo not drawn) [Example 99, 3-(5-(1-methyl-4-((4-(1-methyl-1H-imidazol-2-yl)piperazin-1-yl)methyl)-1H-pyrrolo[2,3-b]pyridin-6-yl)-1-oxoisoindolin-2-yl) piperidine-2,6-dione] | > 10 | < 20 | 100 to 500 | 10 to 100 | 40 to 60
O=C1CCC(N2Cc3cc(-c4cc(CN5CCCC5)c5cn(C6COC6)nc5n4)ccc3C2=O)C(=O)N1 (stereo not drawn) [Example 317, 3-(5-(2-(oxetan-3-yl)-4-(pyrrolidin-1-ylmethyl)-2H-pyrazolo[3,4-b]pyridin-6-yl)-1-oxoisoindolin-2-yl) piperidine-2,6-dione] | > 10 | < 20 | 100 to 500 | 1 to 10 | 60 to 80
Cc1cc(-c2ccc3c(c2)CN(C2CCC(=O)NC2=O)C3=O)nc2c1CCN2CCO (stereo not drawn) [Example 132, 3-(5-(1-(2-hydroxyethyl)-4-methyl-2,3-dihydro-1H-pyrrolo[2,3-b]pyridin-6-yl)-1-oxoisoindolin-2-yl) piperidine-2,6-dione] | > 10 | < 20 | 5000 to 10000 | 10 to 100 | 40 to 60
O=C1CCC(N2Cc3cc(-c4cc(CN5CCC(O)CC5)c5ccn(C6CC6)c5n4)ccc3C2=O)C(=O)N1 (stereo not drawn) [Example 159, 3-(5-(1-cyclopropyl-4-((4-hydroxypiperidin-1-yl)methyl)-1H-pyrrolo[2,3-b]pyridin-6-yl)-1-oxoisoindolin-2-yl) piperidine-2,6-dione] | 0.01 to 0.1 | 20 to 40 | 100 to 500 | 1 to 10 | 60 to 80
O=C1CCC(N2Cc3cc(-c4cc(CN5CCCC5)c5nc[nH]c5n4)ccc3C2=O)C(=O)N1 (stereo not drawn) [Example 145, 3-(1-oxo-5-(7-(pyrrolidin-1-ylmethyl)-3H-imidazo[4,5-b]pyridin-5-yl)isoindolin-2-yl) piperidine-2,6-dione] | > 10 | < 20 | 1000 to 5000 | 100 to 1000 | < 20
O=C1CCC(N2Cc3cc(-c4cc(CN5CCCC5)c5ccccc5n4)ccc3C2=O)C(=O)N1 (stereo not drawn) [Example 78, 3-(1-oxo-5-(4-(pyrrolidin-1-ylmethyl)quinolin-2-yl)isoindolin-2-yl) piperidine-2,6-dione] | > 10 | 20 to 40 | 500 to 1000 | < 1 | > 80
Cn1ccc2c(CN3CC(O)C3)cc(-c3ccc4c(c3)CN(C3CCC(=O)NC3=O)C4=O)nc21 (stereo not drawn) [Example 306, 3-(5-(4-((3-hydroxyazetidin-1-yl)methyl)-1-methyl-1H-pyrrolo[2,3-b]pyridin-6-yl)-1-oxoisoindolin-2-yl) piperidine-2,6-dione] | 0.1 to 1 | 20 to 40 | 100 to 500 | 10 to 100 | > 80
Cn1ccc2c(CN3CCCC3)nc(-c3ccc4c(c3)CN(C3CCC(=O)NC3=O)C4=O)nc21 (stereo not drawn) [Example 184, 3-(5-(7-methyl-4-(pyrrolidin-1-ylmethyl)-7H-pyrrolo[2,3-d]pyrimidin-2-yl)-1-oxoisoindolin-2-yl) piperidine-2,6-dione] | 1 to 10 | 20 to 40 | 500 to 1000 | 1 to 10 | 60 to 80
Cn1ccc2c(CN3CC4CC4C3)cc(-c3ccc4c(c3)CN(C3CCC(=O)NC3=O)C4=O)nc21 (stereo not drawn) [Example 66, 3-(5-(4-((3-azabicyclo[3.1.0]hexan-3-yl)methyl)-1-methyl-1H-pyrrolo[2,3-b]pyridin-6-yl)-1-oxoisoindolin-2-yl) piperidine-2,6-dione] | > 10 | 20 to 40 | 100 to 500 | < 1 | > 80
Cn1ccc2c(CN3CCN(S(C)(=O)=O)CC3)cc(-c3ccc4c(c3)CN(C3CCC(=O)NC3=O)C4=O)nc21 (stereo not drawn) [Example 61, 3-(5-(1-methyl-4-((4-(methylsulfonyl)piperazin-1-yl)methyl)-1H-pyrrolo[2,3-b]pyridin-6-yl)-1-oxoisoindolin-2-yl) piperidine-2,6-dione] | > 10 | < 20 | 500 to 1000 | 10 to 100 | 40 to 60
O=C1CCC(N2Cc3cc(-c4cc(CN5CCCC5)c5cc[nH]c5n4)c(F)cc3C2=O)C(=O)N1 (stereo not drawn) [Example 122, 3-(6-fluoro-1-oxo-5-(4-(pyrrolidin-1-ylmethyl)-1H-pyrrolo[2,3-b]pyridin-6-yl)isoindolin-2-yl) piperidine-2,6-dione] | 0.001 to 0.01 | 20 to 40 | 1000 to 5000 | 100 to 1000 | 20 to 40
O=C1CCC(N2Cc3cc(-c4cc(CN5CCC(F)C5)c5ccn(C6CC6)c5n4)ccc3C2=O)C(=O)N1 (stereo not drawn) [Example 141, 3-(5-(1-cyclopropyl-4-((3-fluoropyrrolidin-1-yl)methyl)-1H-pyrrolo[2,3-b]pyridin-6-yl)-1-oxoisoindolin-2-yl) piperidine-2,6-dione] | > 10 | < 20 | 1000 to 5000 | 1 to 10 | > 80
Cn1cc2c(CN3CCCC3)cc(-c3ccc4c(c3)CN(C3CCC(=O)NC3=O)C4=O)nc2n1 (stereo not drawn) [Example 315, 3-(5-(2-methyl-4-(pyrrolidin-1-ylmethyl)-2H-pyrazolo[3,4-b]pyridin-6-yl)-1-oxoisoindolin-2-yl) piperidine-2,6-dione] | 0.01 to 0.1 | 20 to 40 | 100 to 500 | 10 to 100 | > 80
Cn1ccc2c(CN3CCOCC3)cc(-c3ccc4c(c3)CN(C3CCC(=O)NC3=O)C4=O)nc21 (stereo not drawn) [Example 58, 3-(5-(1-methyl-4-(morpholinomethyl)-1H-pyrrolo[2,3-b]pyridin-6-yl)-1-oxoisoindolin-2-yl) piperidine-2,6-dione] | > 10 | < 20 | 500 to 1000 | 1 to 10 | 60 to 80
Cn1ccc2c(CN3CC4COCC4C3)cc(-c3ccc4c(c3)CN(C3CCC(=O)NC3=O)C4=O)nc21 (stereo not drawn) [Example 63, 3-(5-(1-methyl-4-((tetrahydro-1H-furo[3,4-c]pyrrol-5 (3H)-yl)methyl)-1H-pyrrolo[2,3-b]pyridin-6-yl)-1-oxoisoindolin-2-yl) piperidine-2,6-dione] | > 10 | 20 to 40 | 100 to 500 | < 1 | > 80
Nc1n[nH]c2c(CN3CCC3)cc(-c3ccc4c(c3)CN(C3CCC(=O)NC3=O)C4=O)nc12 (stereo not drawn) [Example 208, 3-(5-(3-amino-7-(azetidin-1-ylmethyl)-1H-pyrazolo[4,3-b]pyridin-5-yl)-1-oxoisoindolin-2-yl) piperidine-2,6-dione] | > 10 | < 20 | < 100 | 100 to 1000 | 60 to 80
Cn1ccc2c(CN3CCC4(CC3)CC4)cc(-c3ccc4c(c3)CN(C3CCC(=O)NC3=O)C4=O)nc21 (stereo not drawn) [Example 64, 3-(5-(4-((6-azaspiro[2.5]octan-6-yl)methyl)-1-methyl-1H-pyrrolo[2,3-b]pyridin-6-yl)-1-oxoisoindolin-2-yl) piperidine-2,6-dione] | > 10 | 20 to 40 | 100 to 500 | < 1 | > 80
